This assay concerns rat bladder muscle strips (detrusor). The assay is classed as cell-based.

These results are taken from patent US20200352923A1 (priority 2017, published 2020).

As for `CN(C)C(=O)Oc1ccc[n+](C)c1` [pyridostigmine], the “drop in force from baseline after pyridostigmine” value amounted to 13±6% and the “recovery of the force drop” value is listed as “about 50%”.
